Here are results for 13 compounds from PubChem BioAssay AID342 (DTP/NCI, 2004).

For this test, the system named is Swiss mice, Sarcoma 180 sc, mean tumor weight T/C. Briefly: NCI In Vivo Anticancer Drug Screen. Data for tumor model Sarcoma 180 (subcutaneous) in Swiss mice. Conditions: endpoint: mean tumor weight, higher = larger tumour. An outline of the steps: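 Antitumor activity is assessed in mice with transplantable tumors. Treated (T) and vehicle control (C) groups are compared on survival or tumor size.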

The mark [1] stands for this setting: dose: 15.0 mg/kg/injection, schedule: Q01DX007 (ip), vehicle: saline.
Setting [2] is: dose: 500.0 mg/kg/injection, schedule: Q01DX007 (ip), vehicle: saline.
Setting [3] is: dose: 50.0 mg/kg/injection, schedule: Q01DX007 (ip), vehicle: carboxymethylcellulose (CMC).
Setting [4] is: dose: 60.0 mg/kg/injection, schedule: Q01DX007 (sc), vehicle: steriod suspending solution.

In general, T/C refers to the ratio of treated to control.

“And” between values parts separate entries of the source, which are not always exact repeats. Identical values can stand only once. Square brackets hold non-standard residues; d marks the D form. Peptide text beside a SMILES is read from it. Ac5c = NC1(C(=O)O)CCCC1

As for `CN1CC2CC(C1)c1cccc(=O)n1C2` (configuration not stated), the T/C by setting is: (dose: 6.6 mg/kg/injection, schedule: Q01DX007 (ip), vehicle: saline) 111 % of control; (dose: 10.0 mg/kg/injection, schedule: Q01DX007 (ip), vehicle: saline) 49 % of control; under setting [1], 113 % of control; (dose: 22.0 mg/kg/injection, schedule: Q01DX007 (ip), vehicle: saline) 74 % of control.

As for `C[N+]1(CCC[N+]2(C)C[C@@H]3[C@H](C2)[C@@H]2C=C[C@H]3C2)CCOCC1` (some centres not stated), the T/C is, setting by setting: (dose: 125.0 mg/kg/injection, schedule: Q01DX007 (ip), vehicle: saline) 95 % of control; under setting [2], 111 % of control.

Regarding `CCCCCCCCCCCCCC1=C(O)C(=O)C(CC2=C(O)C(=O)C(CCCCCCCCCCCCC)=C(O)C2=O)=C(O)C1=O`, the T/C by setting is: under setting [3], 66 % of control and 80 % of control; (dose: 100.0 mg/kg/injection, schedule: Q01DX007 (ip), vehicle: carboxymethylcellulose (CMC)) 73 % of control; (dose: 200.0 mg/kg/injection, schedule: Q01DX007 (ip), vehicle: carboxymethylcellulose (CMC)) 101 % of control.

Take `CC1(C)O[C@@H]2C[C@H]3[C@@H]4CCC5=CC(=O)CC[C@]5(C)[C@@]4(F)[C@@H](O)C[C@]3(C)[C@]2(C(=O)CO)O1`: the T/C (dose: 2.2 mg/kg/injection, schedule: Q#A X014 (sc), vehicle: steriod suspending solution) was 53 % of control and 63 % of control; the T/C (dose: 2.3 mg/kg/injection, schedule: Q01DX007 (sc), vehicle: steriod suspending solution) is 61 % of control; the T/C (dose: 3.3 mg/kg/injection, schedule: Q#A X014 (sc), vehicle: steriod suspending solution) was 62 % of control; the T/C (dose: 3.5 mg/kg/injection, schedule: Q01DX007 (sc), vehicle: steriod suspending solution) was 47 % of control; the T/C (dose: 5.0 mg/kg/injection, schedule: Q#A X014 (sc), vehicle: steriod suspending solution) was 27 % of control; the T/C (dose: 5.3 mg/kg/injection, schedule: Q01DX007 (sc), vehicle: steriod suspending solution) is 43 % of control. Further, the T/C runs as follows: (dose: 7.5 mg/kg/injection, schedule: Q#A X014 (sc), vehicle: steriod suspending solution) 24 % of control; (dose: 12.0 mg/kg/injection, schedule: Q01DX007 (sc), vehicle: steriod suspending solution) 36 % of control; (dose: 27.0 mg/kg/injection, schedule: Q01DX007 (sc), vehicle: steriod suspending solution) 39 % of control and 40 % of control; (dose: 40.0 mg/kg/injection, schedule: Q01DX007 (sc), vehicle: steriod suspending solution) 32 % of control; under setting [4], 24 % of control; (dose: 90.0 mg/kg/injection, schedule: Q01DX007 (sc), vehicle: steriod suspending solution) 19 % of control and 30 % of control. Also, the T/C (dose: 130.0 mg/kg/injection, schedule: Q01DX007 (sc), vehicle: steriod suspending solution) was 16 % of control.

For `NCC(=O)NC1(C(=O)O)CCCC1` (H-Gly-[Ac5c]-OH), the T/C (dose: 66.0 mg/kg/injection, schedule: Q01DX007 (ip), vehicle: saline) is 57 % of control; the T/C (dose: 100.0 mg/kg/injection, schedule: Q01DX007 (ip), vehicle: saline) was 103 % of control; the T/C (dose: 150.0 mg/kg/injection, schedule: Q01DX007 (ip), vehicle: saline) is 45 % of control; the T/C (dose: 225.0 mg/kg/injection, schedule: Q01DX007 (ip), vehicle: saline) is 47 % of control.

Consider `Nc1nc(=S)c2ncn(C3CCCO3)c2[nH]1` (configuration not stated), for which the T/C (dose: 20.0 mg/kg/injection, schedule: Q01DX007 (ip), vehicle: carboxymethylcellulose (CMC)) was 43 % of control and 46 % of control; the T/C (dose: 45.0 mg/kg/injection, schedule: Q01DX007 (ip), vehicle: carboxymethylcellulose (CMC)) was 18 % of control and 38 % of control; the T/C (dose: 90.0 mg/kg/injection, schedule: Q01DX007 (ip), vehicle: carboxymethylcellulose (CMC)) is 9 % of control.

`Nc1c(Br)cc2c(c1Br)Cc1cc([N+](=O)[O-])ccc1-2`: the T/C was 77 % of control (dose: 74.0 mg/kg/injection, schedule: Q01DX007 (ip), vehicle: other); 27 % of control (dose: 111.0 mg/kg/injection, schedule: Q#A X014 (ip), vehicle: saline); 92 % of control (dose: 148.0 mg/kg/injection, schedule: Q01DX007 (ip), vehicle: carboxymethylcellulose (CMC)); 96 % of control (dose: 148.0 mg/kg/injection, schedule: Q01DX007 (ip), vehicle: other); 56 % of control (dose: 148.0 mg/kg/injection, schedule: Q01DX007 (ip), vehicle: saline); 21 % of control (dose: 166.5 mg/kg/injection, schedule: Q#A X014 (ip), vehicle: saline). Also, the T/C is, setting by setting: (dose: 222.0 mg/kg/injection, schedule: Q01DX007 (ip), vehicle: other) 42 % of control; (dose: 222.0 mg/kg/injection, schedule: Q01DX007 (ip), vehicle: saline) 64 % of control; (dose: 250.0 mg/kg/injection, schedule: Q#A X014 (ip), vehicle: saline) 21 % of control; (dose: 333.0 mg/kg/injection, schedule: Q01DX007 (ip), vehicle: other) 40 % of control; (dose: 333.0 mg/kg/injection, schedule: Q01DX007 (ip), vehicle: saline) 67 % of control; under setting [2], 54 % of control.

For the compound `O=P(N1CCCCCC1)(N1CC1)N1CC1`, the T/C is, setting by setting: (dose: 1.0 mg/kg/injection, schedule: Q#A X014 (ip), vehicle: methylcellulose (MC)) 91 % of control; (dose: 1.0 mg/kg/injection, schedule: Q#A X014 (ip), vehicle: saline) 120 % of control; (dose: 1.5 mg/kg/injection, schedule: Q#A X014 (ip), vehicle: methylcellulose (MC)) 86 % of control; (dose: 1.5 mg/kg/injection, schedule: Q#A X014 (ip), vehicle: saline) 103 % of control; (dose: 2.0 mg/kg/injection, schedule: Q#A X014 (ip), vehicle: methylcellulose (MC)) 65 % of control; (dose: 2.0 mg/kg/injection, schedule: Q#A X014 (ip), vehicle: saline) 88 % of control. Besides, the T/C is 61 % of control (dose: 3.0 mg/kg/injection, schedule: Q#A X014 (ip), vehicle: methylcellulose (MC)) and 70 % of control (dose: 3.0 mg/kg/injection, schedule: Q#A X014 (ip), vehicle: saline).

As for `CSc1ncnc2c1ncn2C1OC(CO)C(O)C1O` (configuration not stated), the T/C runs as follows: (dose: 12.5 mg/kg/injection, schedule: Q01DX007 (ip), vehicle: saline) 72 % of control; under setting [1], 88 % of control; (dose: 17.5 mg/kg/injection, schedule: Q01DX007 (ip), vehicle: saline) 94 % of control; (dose: 20.0 mg/kg/injection, schedule: Q01DX007 (ip), vehicle: saline) 73 % of control.

Turning to `CC1(c2ccccc2)O[C@@H]2C[C@H]3[C@@H]4CCC5=CC(=O)C=C[C@]5(C)[C@@]4(F)[C@@H](O)C[C@]3(C)[C@]2(C(=O)CO)O1` (some centres not stated), the T/C is 72 % of control (dose: 1.2 mg/kg/injection, schedule: Q01DX007 (sc), vehicle: steriod suspending solution); 70 % of control (dose: 1.7 mg/kg/injection, schedule: Q#A X014 (sc), vehicle: steriod suspending solution); 70 % of control (dose: 2.5 mg/kg/injection, schedule: Q01DX007 (sc), vehicle: steriod suspending solution); 32 % of control (dose: 2.6 mg/kg/injection, schedule: Q#A X014 (sc), vehicle: steriod suspending solution); 52 % of control (dose: 5.0 mg/kg/injection, schedule: Q01DX007 (sc), vehicle: steriod suspending solution); 63 % of control (dose: 6.0 mg/kg/injection, schedule: Q01DX007 (sc), vehicle: steriod suspending solution). Also, the T/C reads like this: (dose: 39.0 mg/kg/injection, schedule: Q01DX007 (sc), vehicle: steriod suspending solution) 28 % of control; (dose: 50.0 mg/kg/injection, schedule: Q01DX007 (sc), vehicle: steriod suspending solution) 14 % of control; under setting [4], 33 % of control; (dose: 100.0 mg/kg/injection, schedule: Q01DX007 (sc), vehicle: steriod suspending solution) 7 % of control.

As to `CN=C(N)c1ccc(N=C(N)c2ccc(C(N)=Nc3ccc(C(N)=NC)cc3)cc2)cc1`, the T/C is 124 % of control (dose: 12.5 mg/kg/injection, schedule: Q01DX007 (ip), vehicle: carboxymethylcellulose (CMC)); 86 % of control (dose: 25.0 mg/kg/injection, schedule: Q01DX007 (ip), vehicle: carboxymethylcellulose (CMC)); 80 % of control under setting [3].

Consider `CNC(C)C(O)c1ccccc1` (configuration not stated), for which the T/C was 78 % of control (dose: 133.0 mg/kg/injection, schedule: Q01DX007 (ip), vehicle: saline) and 60 % of control (dose: 200.0 mg/kg/injection, schedule: Q01DX007 (ip), vehicle: saline).

With `Nc1ccc2c(c1)Cc1cc(NC=O)ccc1-2`, the T/C was 98 % of control (dose: 55.5 mg/kg/injection, schedule: Q01DX007 (ip), vehicle: carboxymethylcellulose (CMC)); 52 % of control (dose: 83.3 mg/kg/injection, schedule: Q01DX007 (ip), vehicle: carboxymethylcellulose (CMC)); 72 % of control (dose: 125.0 mg/kg/injection, schedule: Q01DX007 (ip), vehicle: carboxymethylcellulose (CMC)); 36 % of control (dose: 187.5 mg/kg/injection, schedule: Q01DX007 (ip), vehicle: carboxymethylcellulose (CMC)).
